Test results published in patent US9023864B2, “Indole derivatives as CRTH2 receptor antagonists” (Merck Sharp & Dohme Corp., priority 2009, dated 2015).

Molecular target: T1, hCRTH2 (Homo sapiens, UniProt Q9Y5Y4)
T1 construct: expressed in transfected cells; host or cells: HEK cell line expressing hCRTH2 (HEK-hCRTH2); membranes
T1 sequence (Q9Y5Y4 1-395): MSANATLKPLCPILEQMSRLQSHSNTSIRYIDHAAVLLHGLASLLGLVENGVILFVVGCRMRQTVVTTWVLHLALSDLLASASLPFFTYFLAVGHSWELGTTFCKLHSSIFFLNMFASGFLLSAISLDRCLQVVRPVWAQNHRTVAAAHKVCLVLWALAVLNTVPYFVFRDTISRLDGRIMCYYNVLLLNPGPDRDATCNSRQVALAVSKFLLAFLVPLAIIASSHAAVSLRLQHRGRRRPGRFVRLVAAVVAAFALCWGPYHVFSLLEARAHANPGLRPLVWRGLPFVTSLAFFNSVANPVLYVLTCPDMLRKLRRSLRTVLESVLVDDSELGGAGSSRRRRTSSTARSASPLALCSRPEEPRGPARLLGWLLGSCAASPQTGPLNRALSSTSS
Test: Radioligand binding assay ([3H]PGD2 competition, membranes from HEK-hCRTH2 cell line)
Details: 0.7 nM [3H]PGD2, membrane protein from HEK-hCRTH2 cell line, 60 min at room temperature; values given as ranges
Procedure: Radioligand Binding Assay.
Radioligand binding assays were performed at room temperature in 10 mM HEPES/KOH pH 7.4, 1 mM EDTA containing 10 mM MnCl2 and 0.7 nM [^3H]PGD2 (NEN, 171 Ci mmol^−1), in a final volume of 0.2 ml. Competing ligands were diluted in dimethylsulfoxide (Me2SO) that was kept constant at 1% (v/v) of the final incubation volume. The reaction was initiated by the addition of 8-20 μg of membrane protein prepared from a HEK-hCRTH2 cell line. Total and non-specific binding were determined in the absence and the presence of 10 μM PGD2, respectively. Under these conditions, specific binding (total minus non-specific) of the radioligand to the receptor reached equilibrium within 50 min and was stable up to 180 min. The reaction was routinely conducted for 60 min at room temperature and terminated by rapid filtration through prewetted Unifilters GF/C (Packard), using a Tomtec MachIII semi-automated harvester (for HEK-hCRTH2). The filters were then washed with 4 ml of the same buffer and residual radioligand bound to the filter was determined by liquid scintillation counting following equilibration in 25 μl Ultima Gold F™ (Unifilter) (Packard). The Ki (in nM) values for representative compounds of the present invention are as follows: ≦5: Examples 3.1, 5.1, 6.1, 7.1, 8.1/8A, 9.1, 26, 27.1, 28.1, 29.1, 30, 31.1, 31.3, 32.1, 32.4, 33.1, 34.1, 36.1, 38.1, 39, 40, 41; >5 and ≦10: Examples, 4, 5.3, 29.2; >10 and ≦50: Examples 1, 10, 14, 21, 22, 25, 31.4, 32.3, 35, 36.2, 37; >50 and ≦100: Examples 2, 5.4, 6.2, 27.2, 28.2; >100: Examples 3.2, 5.2, 7.2, 8.2, 9.2, 11, 12, 13, 15, 16, 17, 18, 19, 20, 23, 24, 31.2, 32.2, 33.2, 34.2, 38.2.

Compound	Ki [nM]
O=C(O)Cc1c2n(c3c(F)cccc13)CC(n1nncc1Cc1ccc(F)c(F)c1)CC2 (single isomer, unassigned) [Example 33.2, {7-[5-(3,4-difluorobenzyl)-1H-1,2,3-triazol-1-yl]-4-fluoro-6,7,8,9-tetrahydropyrido[1,2-a]-indol-10-yl}acetic acid]	> 100
CC(C)(c1ccc(F)cc1)c1cnnn1C1CCc2c(CC(=O)O)c3cccc(F)c3n2C1 (single isomer, unassigned) [Example 39, (4-Fluoro-7-{5-[1-(4-fluorophenyl)-1-methylethyl]-1H-1,2,3-triazol-1-yl}-6,7,8,9-tetrahydropyrido[1,2-a]indol-10-yl)acetic acid]	≤ 5
O=C(O)Cc1c2n(c3ccccc13)CC(n1nncc1Cc1ccc(F)cc1F)CC2 (single isomer, unassigned) [Example 40, {7-[5-(2,4-difluorobenzyl)-1H-1,2,3-triazol-1-yl]-6,7,8,9-tetrahydropyrido[1,2-a]-indol-10-yl}acetic acid]	≤ 5
O=C(O)Cc1c2n(c3c(F)cccc13)CC(n1nncc1Cc1ccc(F)cc1F)CC2 (single isomer, unassigned) [Example 41, {7-[5-(2,4-difluorobenzyl)-1H-1,2,3-triazol-1-yl]-4-fluoro-6,7,8,9-tetrahydro-pyrido[1,2-a]indol-10-yl}acetic acid]	≤ 5
O=C(O)Cc1c2n(c3ccccc13)CC(n1cc(Cc3ccccc3)nn1)CC2 (stereo not drawn) [Example 1, [7-(4-Benzyl-[1,2,3]triazol-1-yl)-6,7,8,9-tetrahydropyrido[1,2-α]indol-10-yl]-acetic acid]	10 to 50
COc1ccc(-c2cn(C3CCc4c(CC(=O)O)c5ccccc5n4C3)nn2)cc1 (stereo not drawn) [Example 2, {7-[4-(4-Methoxy-phenyl)-[1,2,3]triazol-1-yl]-6,7,8,9-tetrahydropyrido[1,2-α]indol-10-yl}-acetic acid]	50 to 100
O=C(O)Cc1c2n(c3ccccc13)CC(n1nncc1COc1c(Cl)cccc1Cl)CC2 (stereo not drawn) [Example 4, (7-{5-[(2,6-dichlorophenoxy)methyl]-1H-1,2,3-triazol-1-yl}-6,7,8,9-tetrahydropyrido[1,2-α]indol-10-yl)acetic acid]	5 to 10
O=C(O)Cc1c2n(c3c(F)cccc13)C[C@H](n1nncc1Cc1ccc(F)cc1)CC2 [Example 8.1, {(7R)-4-Fluoro-7-[5-(4-fluorobenzyl)-1H-[1,2,3]triazol-1-yl]-6,7,8,9-tetrahydropyrido[1,2-a]-indol-10-yl}-acetic acid]	≤ 5
O=C(O)Cc1c2n(c3ccccc13)CC(n1cc(-c3ccc(F)cc3)nn1)CC2 (stereo not drawn) [Example 10, {7-[4-(4-Fluoro-phenyl)-[1,2,3]triazol-1-yl]-6,7,8,9-tetrahydropyrido[1,2-α]indol-10-yl}-acetic acid]	10 to 50
CS(=O)(=O)NCCCCc1cn(C2CCc3c(CC(=O)O)c4ccccc4n3C2)nn1 (stereo not drawn) [Example 11, {7-[4-(4-Methanesulfonylamino-butyl)-[1,2,3]triazol-1-yl]-6,7,8,9-tetrahydropyrido[1,2-α]indol-10-yl}-acetic acid]	> 100
CC(C)C(O)c1cn(C2CCc3c(CC(=O)O)c4ccccc4n3C2)nn1 (stereo not drawn) [Example 12, {7-[4-(1-Hydroxy-2-methyl-propyl)-[1,2,3]triazol-1-yl]-6,7,8,9-tetrahydropyrido[1,2-α]indol-10-yl}-acetic acid]	> 100
CC(O)(c1ccccc1)c1cn(C2CCc3c(CC(=O)O)c4ccccc4n3C2)nn1 (stereo not drawn) [Example 13, {7-[4-(1-Hydroxy-1-phenyl-ethyl)-[1,2,3]triazol-1-yl]-6,7,8,9-tetrahydropyrido[1,2-α]indol-10-yl}-acetic acid]	> 100
O=C(O)Cc1c2n(c3ccccc13)CC(n1cc(COc3ccccc3)nn1)CC2 (stereo not drawn) [Example 14, [7-(4-Phenoxymethyl-[1,2,3]triazol-1-yl)-6,7,8,9-tetrahydropyrido[1,2-α]indol-10-yl]-acetic acid]	10 to 50
CS(=O)(=O)c1ccc(-c2cn(C3CCc4c(CC(=O)O)c5ccccc5n4C3)nn2)cc1 (stereo not drawn) [Example 15, {7-[4-(4-Methanesulfonyl-phenyl)-[1,2,3]triazol-1-yl]-6,7,8,9-tetrahydropyrido[1,2-α]indol-10-yl}-acetic acid]	> 100
CC(C)(O)c1ccc(-c2cn(C3CCc4c(CC(=O)O)c5ccccc5n4C3)nn2)cc1 (stereo not drawn) [Example 16, (7-{4-[4-(1-Hydroxy-1-methyl-ethyl)-phenyl]-[1,2,3]triazol-1-yl}-6,7,8,9-tetrahydropyrido[1,2-α]indol-10-yl)-acetic acid]	> 100
O=C(O)Cc1c2n(c3ccccc13)CC(n1cc(-c3ccc(C(F)(F)F)cc3)nn1)CC2 (stereo not drawn) [Example 17, {7-[4-(4-Trifluoromethyl-phenyl)-[1,2,3]triazol-1-yl]-6,7,8,9-tetrahydropyrido[1,2-α]indol-10-yl}acetic acid]	> 100
O=C(O)Cc1c2n(c3ccccc13)CC(n1cc(-c3cccc4ccccc34)nn1)CC2 (stereo not drawn) [Example 18, [7-(4-Naphthalen-1-yl-[1,2,3]triazol-1-yl)-6,7,8,9-tetrahydropyrido[1,2-α]indol-10-yl]-acetic acid]	> 100
CN(C)c1ccc(-c2cn(C3CCc4c(CC(=O)O)c5ccccc5n4C3)nn2)cc1 (stereo not drawn) [Example 19, {7-[4-(4-Dimethylamino-phenyl)-[1,2,3]triazol-1-yl]-6,7,8,9-tetrahydropyrido[1,2-α]indol-10-yl}-acetic acid]	> 100

Now from value to molecule:

Ki [nM]	Compound
≤ 5	O=C(O)Cc1c2n(c3c(F)cccc13)CC(n1nncc1Cc1ccc(Cl)cc1)CC2 (single isomer, unassigned) [Example 34.1, {7-[5-(4-chlorobenzyl)-1H-1,2,3-triazol-1-yl]-4-fluoro-6,7,8,9-tetrahydropyrido[1,2-a]indol-10-yl}acetic acid]
> 100	O=C(O)Cc1c2n(c3c(F)cccc13)CC(n1nncc1Cc1ccc(Cl)cc1)CC2 (single isomer, unassigned) [Example 34.2, {7-[5-(4-chlorobenzyl)-1H-1,2,3-triazol-1-yl]-4-fluoro-6,7,8,9-tetrahydropyrido[1,2-a]indol-10-yl}acetic acid]
≤ 5	Cc1nnn(C2CCc3c(CC(=O)O)c4cccc(F)c4n3C2)c1Cc1ccc(F)cc1 (single isomer, unassigned) [Example 36.1, {4-Fluoro-7-[5-(4-fluorobenzyl)-4-methyl-1H-1,2,3-triazol-1-yl]-6,7,8,9-tetrahydropyrido[1,2-a]indol-10-yl}acetic acid]
10 to 50	Cc1nnn(C2CCc3c(CC(=O)O)c4cccc(F)c4n3C2)c1Cc1ccc(F)cc1 (single isomer, unassigned) [Example 36.2, {4-Fluoro-7-[5-(4-fluorobenzyl)-4-methyl-1H-1,2,3-triazol-1-yl]-6,7,8,9-tetrahydropyrido[1,2-a]indol-10-yl}acetic acid]
≤ 5	CC1C(n2nncc2Cc2ccc(F)cc2)CCc2c(CC(=O)O)c3cccc(F)c3n21 (single isomer, unassigned) [Example 38.1, {4-Fluoro-7-[5-(4-fluorobenzyl)-1H-1,2,3-triazol-1-yl]-6-methyl-6,7,8,9-tetrahydropyrido[1,2-α]indol-10-yl}acetic acid]
> 100	CC1C(n2nncc2Cc2ccc(F)cc2)CCc2c(CC(=O)O)c3cccc(F)c3n21 (single isomer, unassigned) [Example 38.2, {4-Fluoro-7-[5-(4-fluorobenzyl)-1H-1,2,3-triazol-1-yl]-6-methyl-6,7,8,9-tetrahydropyrido[1,2-α]indol-10-yl}acetic acid]
